Laboratory results as given in paper PMC4839570, “Novel Anthra[1,2-c][1,2,5]Thiadiazole-6,11-Diones as Promising Anticancer Lead Compounds: Biological Evaluation, Characterization & Molecular Targets Determination” (PLoS ONE, 2016).
Read-outs that look alike come from different tables or passages of the source.

Key:
[1] = test system: HCT-15; assay: JFCR-39 cytotoxicity screen; assay type: cell-based
[2] = test system: DU-145; assay: NCI-60 cytotoxicity screen; assay type: cell-based
[3] = test system: PC-3; assay: JFCR-39 cytotoxicity screen; assay type: cell-based
[4] = test system: normal cardiac myoblast H9c2 cells; details: rat
Method: Briefly, 96 well microtiter plates were inoculated with the specified human cancer cell lines in RPMI 1640 medium containing 5% fetal bovine serum and 2 mM L-glutamine at the specified plating densities. The microtiter plates were incubated at 37°C, 5% CO2, and 100% relative humidity for 24 h. The test compounds were solubilized in DMSO at 400-fold the desired final maximum test concentration, diluted with complete medium containing gentamicin and added to the wells of the microtiter plates to achieve the final desired compound concentration, then incubated for an additional 48 h at the same incubation conditions. The media were removed, the cells were fixed then stained with sulforhodamine B and the unbound dye was removed by washing with acetic acid. The bound dye was resolubilized with trizma base and the absorbance at 515 nm was measured. Cells were stained with the WST-1 cell proliferation reagent instead of sulforhodamine B in some experiments and absorbance were measured at 440 nm. The three dose response parameters GI50, TGI and LC50 were calculated for each experimental compound as follows [48]: For values where Ti ≥ Tz the formula is [ (Ti-Tz) / (C-Tz)] x 100 For values where Ti < Tz the formula is [ (Ti-Tz) / Tz] x 100 Where Ti is the absorbance of the solubilized Sulforhodamine B (SRB) (representing the number of cells) of the five different concentrations of the compound used in the test, Tz is the absorbance of the SRB at time zero, and C is the absorbance of the SRB of the control growth.

[5] = test system: U251; assay: NCI-60 cytotoxicity screen; assay type: cell-based
[6] = test system: BT-549; assay: NCI-60 cytotoxicity screen; assay type: cell-based
[7] = test system: SF-539; assay: NCI-60 cytotoxicity screen; assay type: cell-based
[8] = test system: SNB-19; assay: NCI-60 cytotoxicity screen; assay type: cell-based
[9] = test system: OVCAR-5; assay: JFCR-39 cytotoxicity screen; assay type: cell-based
[10] = test system: TK-10; assay: NCI-60 cytotoxicity screen; assay type: cell-based
[11] = test system: MALME-3M; assay: NCI-60 cytotoxicity screen; assay type: cell-based
[12] = test system: MCF-7; assay: JFCR-39 cytotoxicity screen; assay type: cell-based
[13] = test system: OVCAR-5; assay: NCI-60 cytotoxicity screen; assay type: cell-based
[14] = test system: MKN74; assay: JFCR-39 cytotoxicity screen; assay type: cell-based
[15] = test system: SK-MEL-2; assay: NCI-60 cytotoxicity screen; assay type: cell-based
[16] = test system: RXF-631L; assay: JFCR-39 cytotoxicity screen; assay type: cell-based
[17] = test system: IGROV1; assay: NCI-60 cytotoxicity screen; assay type: cell-based
[18] = test system: NF-κB p65 subunit in OVCAR-3 cells; assay: Western blotting of nuclear and cytosolic fractions; assay type: cell-based, human; details: OVCAR-3 nuclear fraction
Method: Treated cells were fractionated into nuclear and cytosolic fractions using the Nuclear/Cytosol fractionation kit (BioVision), separated by electrophoresis in SDS-PAGE gels and transferred to Amersham Hybond-P PVDF Membranes. Membranes were probed with either anti-NF-κB p65 rabbit monoclonal primary antibody [E379] Abcam # ab32536, anti-TATA binding protein (TBP) mouse antibody (1TBP18), or anti-beta Tubulin rabbit antibody [NB600-936]. After washing, membranes were incubated with either goat anti-rabbit IgG H&L (HRP) (ab6721), or rabbit anti-mouse IgG H&L (HRP) (ab6728) secondary antibodies. Membranes were developed using the Immobilon Western chemiluminescent HRP substrate kit. Protein bands were normalized to either the beta Tubulin or TBP bands and quantified using ImageJ software.

[19] = test system: BSY-1; assay: JFCR-39 cytotoxicity screen; assay type: cell-based
[20] = test system: ACHN; assay: NCI-60 cytotoxicity screen; assay type: cell-based
[21] = test system: NCI-H226; assay: JFCR-39 cytotoxicity screen; assay type: cell-based
[22] = test system: SF-539; assay: JFCR-39 cytotoxicity screen; assay type: cell-based
[23] = test system: HL-60(TB); assay: NCI-60 cytotoxicity screen; assay type: cell-based
[24] = test system: MKN7; assay: JFCR-39 cytotoxicity screen; assay type: cell-based
[25] = test system: RXF 393; assay: NCI-60 cytotoxicity screen; assay type: cell-based
[26] = test system: DU-145; assay: JFCR-39 cytotoxicity screen; assay type: cell-based
[27] = test system: KM-12; assay: JFCR-39 cytotoxicity screen; assay type: cell-based
[28] = test system: K-562; assay: NCI-60 cytotoxicity screen; assay type: cell-based
[29] = Homo sapiens, read-out: LC50 (the source's name)
[30] = Homo sapiens, Fig 7, read-out: mean log10 of the GI50 values (converted)
[31] = Homo sapiens, five-dose, read-out: GI50
[32] = Homo sapiens, five-dose, read-out: LC50 (the source's name)

O=C1c2ccccc2C(=O)c2c1ccc1nsnc21 [NSC745885, anthra[1,2-c][1,2,5]thiadiazole-6,11-dione]
TGI [1]: 3400 nM | GI50 ([1]; Homo sapiens): 1800 nM | CC50 [1, 29]: 6300 nM | GI50 [2, 30]: 3550 nM | GI50 [2, 31]: 1670 nM | CC50 [2, 32]: 6270 nM | TGI ([2]; five-dose): 3240 nM | TGI [3]: 2800 nM | GI50 ([3]; Homo sapiens): 1300 nM | CC50 [3, 29]: 6000 nM | cytotoxicity towards normal cardiac myoblast H9c2 cells [4]: significantly less cytotoxic effects on H9c2 cells at higher doses than doxorubicin | GI50 ([5]; Homo sapiens, U-251, Fig 7, read-out: mean log10 of the GI50 values (converted)): 2510 nM | GI50 ([5]; Homo sapiens, U-251, five-dose, read-out: GI50): 1610 nM | CC50 ([5]; Homo sapiens, U-251, five-dose, read-out: LC50 (the source's name)): 5440 nM | TGI ([5]; five-dose): 2960 nM | GI50 [6, 30]: 4570 nM | GI50 [6, 31]: 1630 nM | CC50 [6, 32]: 6010 nM | TGI ([6]; five-dose): 3130 nM | GI50 [7, 30]: 1480 nM | GI50 [7, 31]: 1460 nM | CC50 [7, 32]: 5910 nM | TGI ([7]; five-dose): 2940 nM | GI50 [8, 30]: 2040 nM | GI50 [8, 31]: 2280 nM | CC50 [8, 32]: 26000 nM | TGI ([8]; five-dose): 5820 nM | TGI [9]: 3400 nM | GI50 ([9]; Homo sapiens): 1900 nM | CC50 [9, 29]: 6000 nM | GI50 [10, 30]: 10000 nM | GI50 [10, 31]: 2850 nM | CC50 [10, 32]: 50400 nM | TGI ([10]; five-dose): 10900 nM | GI50 [11, 30]: 2000 nM | GI50 [11, 31]: 1660 nM | CC50 [11, 32]: 5960 nM | TGI ([11]; five-dose): 3150 nM | TGI [12]: 3900 nM | GI50 ([12]; Homo sapiens, MCF7): 1900 nM | CC50 ([12]; Homo sapiens, MCF7, read-out: LC50 (the source's name)): 8100 nM | GI50 [13, 30]: 2040 nM | GI50 [13, 31]: 1910 nM | CC50 [13, 32]: 8840 nM | TGI ([13]; five-dose): 4110 nM | TGI [14]: 4700 nM | GI50 ([14]; Homo sapiens, MKN-74): 1800 nM | CC50 ([14]; Homo sapiens, MKN-74, read-out: LC50 (the source's name)): > 100000 nM | GI50 [15, 30]: 2000 nM | GI50 [15, 31]: 1680 nM | CC50 [15, 32]: 22500 nM | TGI ([15]; five-dose): 4220 nM | TGI [16]: 4900 nM | GI50 ([16]; Homo sapiens): 2300 nM | CC50 [16, 29]: 12000 nM | GI50 ([17]; Homo sapiens, IGROV-1, Fig 7, read-out: mean log10 of the GI50 values (converted)): 1380 nM | GI50 ([17]; Homo sapiens, IGROV-1, five-dose, read-out: GI50): 1360 nM | CC50 ([17]; Homo sapiens, IGROV-1, five-dose, read-out: LC50 (the source's name)): 6350 nM | TGI ([17]; five-dose): 2940 nM | dose of almost complete inhibition of nuclear NF-κB p65 expression [18]: 2.4 µM | TGI [19]: 2800 nM | GI50 ([19]; Homo sapiens): 1400 nM | CC50 [19, 29]: 5600 nM | GI50 [20, 30]: 1580 nM | GI50 [20, 31]: 1460 nM | CC50 [20, 32]: 5270 nM | inhibition at 10 µM ([20]; Homo sapiens, single dose 10 μM, read-out: growth inhibition): 94.3% | TGI ([20]; five-dose): 2770 nM | TGI [21]: 3400 nM | GI50 ([21]; Homo sapiens): 1600 nM | CC50 [21, 29]: 7300 nM | TGI [22]: 3600 nM | GI50 ([22]; Homo sapiens): 1900 nM | CC50 [22, 29]: 6600 nM | GI50 [23, 30]: 589 nM | GI50 [23, 31]: 160 nM | CC50 [23, 32]: 990 nM | TGI ([23]; five-dose): 390 nM | TGI [24]: 3700 nM | GI50 ([24]; Homo sapiens, MKN-7): 1100 nM | CC50 ([24]; Homo sapiens, MKN-7, read-out: LC50 (the source's name)): 17000 nM | GI50 ([25]; Homo sapiens, RXF393, Fig 7, read-out: mean log10 of the GI50 values (converted)): 1740 nM | GI50 [25, 31]: 1750 nM | CC50 [25, 32]: 14600 nM | TGI ([25]; five-dose): 4400 nM | TGI [26]: 3500 nM | GI50 ([26]; Homo sapiens): 2000 nM | CC50 [26, 29]: 6100 nM | TGI [27]: 5400 nM | GI50 ([27]; Homo sapiens, KM12): 2300 nM | CC50 ([27]; Homo sapiens, KM12, read-out: LC50 (the source's name)): 25000 nM | GI50 ([28]; Homo sapiens, K562, Fig 7, read-out: mean log10 of the GI50 values (converted)): 2510 nM | GI50 ([28]; Homo sapiens, K562, five-dose, read-out: GI50): 1920 nM | CC50 ([28]; Homo sapiens, K562, five-dose, read-out: LC50 (the source's name)): 41200 nM | TGI ([28]; five-dose): 15900 nM
